# Laboratory results taken from PubChem BioAssay AID540371 (The Scripps Research Institute Molecular Screening Center, 2011).
# pIC50: −log10 of the molar value. Active and inactive are the calls of the source. The rule behind the calls is not given here.
# Target: Melanin-concentrating hormone receptor 1 (Homo sapiens) (UniProt Q99705)
# Test: MCHR1 antagonists, late-stage follow-up, selectivity assay for GPR7 antagonist project, cell-based, fluorescence, dose response, set 3 (AID 540371)
# Conditions: MCHR1-expressing cells
Structure (SMILES),pIC50 (run 1),IC50 (run 2),pIC50 (run 3),pIC50 (run 2),IC50 (run 3),IC50 (run 1)
COc1ccc(Oc2c(Cl)cnn(Cc3cc(C)cc(C)c3)c2=O)cc1,5.82,inactive,5.19,–,–,–
CCOC(=O)C(c1ccccc1)n1ncc(Cl)c(Oc2ccc(OC)cc2)c1=O (stereo not drawn),5.07,inactive,5.09,–,–,–
COc1ccc(Oc2c(Cl)cnn(Cc3cccc4cnccc34)c2=O)cc1,5.29,–,5.25,5.30,–,–
CCOc1ccc(Oc2c(S(C)=O)cnn(Cc3cccc4ccccc34)c2=O)cc1 (stereo not drawn),5.21,inactive,–,–,inactive,–
COc1ccc(Oc2c(Cl)cnn(CC(=O)C(c3ccccc3)c3ccccc3)c2=O)cc1,5.53,–,5.26,5.54,–,–
CCOc1ccc(Oc2c(Cl)c(Br)nn(Cc3cccc4ccccc34)c2=O)cc1,5.62,–,–,5.22,inactive,–
COc1ccc(Oc2c(C#N)cnn(Cc3cccc4ccccc34)c2=O)cc1,5.68,–,5.65,5.65,–,–
COc1ccc(Oc2c(Cl)cnn(Cc3ccccc3)c2=O)cc1,5.07,inactive,–,–,inactive,–
COc1ccc(Oc2c(Cl)cnn(Cc3c(C)ccc4ccccc34)c2=O)cc1,6.11,–,6.08,6.09,–,–
O=c1c(Oc2ccc3c(c2)CCO3)c(Cl)cnn1Cc1cccc2ccccc12,5.13,> 20 µM (inactive),–,–,> 20 µM (inactive),–
COc1ccc(Oc2c(Cl)cnn(C3c4ccccc4-c4ccccc43)c2=O)cc1,–,> 20 µM (inactive),–,–,> 20 µM (inactive),> 20 µM (inactive)
COc1ccc(Oc2c(Cl)cnn(C(C(=O)c3ccccc3)c3ccccc3)c2=O)cc1 (stereo not drawn),–,> 20 µM (inactive),–,–,> 20 µM (inactive),inactive
CCOc1ccc(Oc2c(Cl)cnn(C3c4ccccc4-c4ccccc43)c2=O)cc1,–,> 20 µM (inactive),–,–,> 20 µM (inactive),> 20 µM (inactive)
CCCOc1ccc(Oc2c(Cl)cnn(C3c4ccccc4-c4ccccc43)c2=O)cc1,–,> 20 µM (inactive),–,–,> 20 µM (inactive),> 20 µM (inactive)
COc1ccc(Oc2c(Cl)cnn(Cc3ccccc3C)c2=O)cc1,5.51,–,5.25,5.11,–,–
COc1ccc(Oc2c(Cl)cnn(Cc3c(F)cccc3F)c2=O)cc1,–,inactive,–,–,inactive,inactive

Structure (SMILES),pIC50 (run 1),IC50 (run 2),pIC50 (run 3),pIC50 (run 2),IC50 (run 3),IC50 (run 1)
COc1ccc(Oc2c(Cl)c(C#N)nn(Cc3ccccc3C)c2=O)cc1,5.60,–,5.57,5.63,–,–
CCOc1ccc(Oc2c(Cl)cnn(Cc3cccc4ccccc34)c2=O)cc1,5.80,–,5.17,5.28,–,–
C=Cc1nn(Cc2ccccc2C)c(=O)c(Oc2ccc(OC)cc2)c1C=C,5.84,–,5.84,5.88,–,–
COc1ccc(Nc2c(Cl)cnn(Cc3cccc4ccccc34)c2=O)cc1,–,inactive,–,–,> 20 µM (inactive),inactive
COc1ccc(Sc2c(Cl)cnn(Cc3cccc4ccccc34)c2=O)cc1,–,inactive,–,–,inactive,inactive
COc1ccc(Oc2c(Cl)cnn(Cc3ccccc3-c3ccccc3)c2=O)cc1,5.95,–,5.34,5.65,–,–
CCOC(=O)C(c1cccc2ccccc12)n1ncc(Cl)c(Oc2ccc(OC)cc2)c1=O (stereo not drawn),–,> 20 µM (inactive),–,–,> 20 µM (inactive),> 20 µM (inactive)
COc1ccc(Oc2c(Cl)cnn(Cc3cccc4ccccc34)c2=O)cc1,6.01,–,5.79,5.77,–,–
COc1ccc(Oc2c(Cl)cnn(Cc3ccc4ccccc4c3)c2=O)cc1,5.40,inactive,–,–,inactive,–
CCc1ccc(Oc2c(Cl)cnn(Cc3cccc4ccccc34)c2=O)cc1,5.71,–,5.68,5.76,–,–
COc1ccc(Oc2c(Cl)cnn(C(c3ccccc3)c3ccccc3)c2=O)cc1,–,> 20 µM (inactive),5.14,–,–,inactive
COc1ccc(Oc2c(Cl)cnn(Cc3ccccc3C(F)(F)F)c2=O)cc1,5.35,–,5.48,5.34,–,–
COc1ccc(Oc2c(Br)cnn(Cc3cccc4ccccc34)c2=O)cc1,6.05,–,5.78,5.67,–,–
CCCOc1ccc(Oc2c(Cl)cnn(Cc3cccc4ccccc34)c2=O)cc1,–,> 20 µM (inactive),–,–,> 20 µM (inactive),inactive
COc1ccc(Oc2c(Cl)cnn(Cc3c4ccccc4cc4ccccc34)c2=O)cc1,–,> 20 µM (inactive),–,–,inactive,> 20 µM (inactive)
